Where two headings read alike, the source gives them in different places. Where no end group is shown, it is not given here.
Key:
Experiment in all cases: Direct-binding FRET assay
Conditions in all cases: read-out: Kd
[1] = target: MAFB (Homo sapiens, UniProt Q9Y5Q3); set-up: made in house
Protocol: (§1) The direct binding assay was performed manually in 384-well plates and is similar to a previously described assay. Wells were filled with 20 μL of 1 mM TCEP-HCl. A 4 μM stock of acceptor protein was made fresh in 1 mM TCEP-HCl, and 20 μL was titrated in 2-fold dilutions over the wells. […] The direct-binding FRET data were fit as previously described. Briefly, the Kd of the designed peptide homodimer was experimentally determined and used with previously determined target homodimer Kd values to determine the heterodimer Kd. The homodimer Kd values used for the human bZIPs were from; experiments done by […] et al. used the same protein constructs for the human bZIP proteins, the same buffer conditions, and the same assay. The fitting used a system of ordinary differential equations to describe the concentrations of homo and heterodimers formed by the donor (D) and acceptor (A) as a function of the heterodimer Kd. MATLAB was used to simulate the binding experiment for different Kd values, and the value that gave the best agreement between simulation and experiment was assigned. A minimum 15% change in the donor fluorescence upon titrating the acceptor peptide from 0 to 1000 nM was required for a fit to be attempted. If this minimum was not met, the interaction was classified as “NS” for no signal change. […] These interactions were marked “AS” to indicate anomalous signal. We attributed this to interactions between the peptides, the dyes and the walls of the assay plates at low concentrations. These curves could not be fit, given their unusual shapes at low concentrations of acceptor. For such curves, we removed the first five points and re-fit the data. […] One example of this is increasing concentrations of acceptor causing an increase in donor fluorescence.

[2] = target: ATF6 (Homo sapiens, UniProt P18850); set-up: made in house
Sequence of ATF6 (P18850 306-369 limits assumed): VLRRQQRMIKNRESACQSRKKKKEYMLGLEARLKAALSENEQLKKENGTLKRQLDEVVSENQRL
Protocol: as §1

[3] = target: NFE2L1 (Homo sapiens, UniProt Q14494); set-up: made in house
Sequence of NFE2L1 (Q14494 654-717 limits assumed): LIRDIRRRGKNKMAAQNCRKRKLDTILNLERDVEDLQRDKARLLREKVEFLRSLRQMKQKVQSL
Protocol: as §1

[4] = target: BACH1 (Homo sapiens, UniProt O14867); set-up: made in house
Protocol: as §1

[5] = target: BACH2 (Homo sapiens, UniProt Q9BYV9); set-up: made in house
Sequence of BACH2 (Q9BYV9 646-709 limits assumed): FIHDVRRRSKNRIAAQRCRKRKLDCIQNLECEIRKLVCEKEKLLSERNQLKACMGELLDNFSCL
Protocol: as §1

[6] = target: MAF (Homo sapiens, UniProt O75444); set-up: made in house
Protocol: as §1

[7] = target: T1, NFE2L2 (Homo sapiens, UniProt Q16236)
T1 construct: made in house
T1 sequence (Q16236 497-560 limits assumed): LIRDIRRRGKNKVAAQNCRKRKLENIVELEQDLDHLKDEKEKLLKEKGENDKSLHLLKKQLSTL
Protocol: as §1

[8] = target: T2, CREBZF (Homo sapiens, UniProt Q9NS37)
T2 construct: made in house
T2 sequence (Q9NS37 204-267 limits assumed): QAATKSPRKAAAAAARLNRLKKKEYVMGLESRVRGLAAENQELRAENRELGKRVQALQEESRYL
Protocol: as §1

[9] = target: T3, BATF (Homo sapiens, UniProt Q16520)
T3 construct: made in house
T3 sequence (Q16520 26-89 limits assumed): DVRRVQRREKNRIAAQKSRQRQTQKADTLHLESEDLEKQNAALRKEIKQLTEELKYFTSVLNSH
Protocol: as §1

[10] = target: T4, CREB3L1 (Homo sapiens, UniProt Q96BA8)
T4 construct: made in house
T4 sequence (Q96BA8 290-353 limits assumed): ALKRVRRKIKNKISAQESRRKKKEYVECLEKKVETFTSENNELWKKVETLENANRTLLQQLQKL
Protocol: as §1

[11] = target: T5, CREB3L3 (Homo sapiens, UniProt Q68CJ9)
T5 construct: made in house
T5 sequence (Q68CJ9 243-306 limits assumed): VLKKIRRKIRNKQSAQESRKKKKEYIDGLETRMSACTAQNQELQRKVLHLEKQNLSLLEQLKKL
Protocol: as §1

[12] = 4°C, C-terminal rhodamine design, mean or single
[13] = 4°C, N-terminal rhodamine design, mean or single
[14] = 23°C, C-terminal rhodamine design, mean or single
[15] = 23°C, N-terminal rhodamine design, mean or single
[16] = 37°C, C-terminal rhodamine design, mean or single
[17] = 37°C, N-terminal rhodamine design, mean or single
[18] = 4°C, C-terminal fluorescein design as donor, TAMRA target titrated
[19] = 23°C, C-terminal fluorescein design as donor, TAMRA target titrated
[20] = 37°C, C-terminal fluorescein design as donor, TAMRA target titrated
[21] = 23°C, N-terminal rhodamine design, repeat 1
[22] = 23°C, N-terminal rhodamine design, repeat 2
[23] = 37°C, N-terminal rhodamine design, repeat 1
[24] = 37°C, N-terminal rhodamine design, repeat 2
[25] = 37°C, C-terminal rhodamine design, repeat 1
[26] = 37°C, C-terminal rhodamine design, repeat 2
[27] = 37°C, C-terminal rhodamine design, repeat 3

Measured: Kd

NQIKTLRTRLSKLRKDNLQLEKDIANLERKAKDLRAEKEQLEYEL [ATF4-d1]
> 5 µM: [1]; [12] | [1]; [14] | [3]; [12] | [3]; [14] | [4]; [12] | [4]; [22] | [5]; [12] | [5]; [19] | [5]; [15] | [5]; [16] | [6]; [12] | [6]; [14] | [7]; [18] | [7]; [14] | [7]; 23°C, C-terminal rhodamine design, repeat 1 | [7]; 23°C, C-terminal rhodamine design, repeat 2 | [7]; 23°C, C-terminal rhodamine design, repeat 3 | [7]; [27] | [8]; [12] | [8]; [14] | [8]; [15] | [9]; [13] | [10]; [12] | [11]; [12]
0.402 µM: [1]; [16]
0.46 µM: [6]; [16]
< 0.2 µM: [8]; [13] | [10]; [14]
0.0479 µM: [7]; [13]
> 1 µM: [1]; [13] | [1]; [15] | [1]; [17] | [2]; [18] | [2]; [12] | [2]; [13] | [2]; [19] | [2]; [14] | [2]; [15] | [2]; [20] | [2]; [16] | [2]; [17] | [3]; 4°C, N-terminal rhodamine design, repeat 1 | [3]; 4°C, N-terminal rhodamine design, repeat 2 | [3]; [15] | [3]; [21] | [3]; [22] | [3]; [16] | [3]; [17] | [3]; [23] | [3]; [24] | [4]; [18] | [4]; [19] | [4]; [14] | [4]; [21] | [4]; [20] | [4]; [16] | [4]; [17] | [4]; [23] | [4]; [24] | [5]; [18] | [5]; [13] | [5]; [14] | [5]; [20] | [5]; [17] | [6]; [13] | [6]; [15] | [6]; [17] | [7]; [19] | [7]; [15] | [7]; [20] | [7]; [25] | [7]; [26] | [7]; [17] | [8]; [19] | [8]; [20] | [8]; [16] | [8]; [17] | [9]; [12] | [9]; [19] | [9]; [14] | [9]; [15] | [9]; [20] | [9]; [16] | [9]; [17] | [10]; [13] | [10]; [15] | [10]; [16] | [10]; [17] | [11]; [18] | [11]; [13] | [11]; [19] | [11]; [14] | [11]; [15] | [11]; [20] | [11]; [16] | [11]; [17]

EREAQLENRVAHLKEKNQELKAQNLHLKEALSEAQNRNQELKNDA [XBP1-d1]
> 5 µM: [1]; [12] | [1]; [14] | [1]; [16] | [2]; [18] | [2]; [16] | [2]; [25] | [2]; [26] | [2]; [27] | [4]; [13] | [9]; [18] | [9]; [12]
> 1 µM: [1]; [18] | [1]; [13] | [1]; [19] | [1]; [15] | [1]; [20] | [1]; [17] | [2]; [19] | [2]; [15] | [2]; [20] | [2]; [17] | [3]; [18] | [3]; [12] | [3]; [13] | [3]; [19] | [3]; [14] | [3]; [15] | [3]; [20] | [3]; [16] | [3]; [17] | [4]; [18] | [4]; [12] | [4]; [19] | [4]; [14] | [4]; [15] | [4]; [20] | [4]; [16] | [4]; [17] | [5]; [18] | [5]; [12] | [5]; [13] | [5]; [19] | [5]; [14] | [5]; [15] | [5]; [20] | [5]; [16] | [5]; [17] | [6]; [18] | [6]; [12] | [6]; [13] | [6]; [19] | [6]; [14] | [6]; [15] | [6]; [20] | [6]; [16] | [6]; [17] | [7]; [18] | [7]; [12] | [7]; [13] | [7]; [19] | [7]; [14] | [7]; [15] | [7]; [20] | [7]; [16] | [7]; [17] | [8]; [18] | [8]; [13] | [8]; [19] | [8]; [15] | [8]; [20] | [8]; [16] | [8]; [25] | [8]; [26] | [8]; [27] | [8]; [17] | [9]; [13] | [9]; [19] | [9]; [14] | [9]; [15] | [9]; [20] | [9]; [16] | [9]; [17] | [10]; [18] | [10]; [12] | [10]; [13] | [10]; [19] | [10]; [14] | [10]; [15] | [10]; [20] | [10]; [16] | [10]; [17] | [11]; [12] | [11]; [13] | [11]; [14] | [11]; [15] | [11]; [16] | [11]; [17]

— paper PMC4335062, “Data-Driven Prediction and Design of bZIP Coiled-Coil Interactions” (PLoS Computational Biology, 2015)
